Measured values published in patent US20110088107A1, “COMPOSITIONS AND METHODS FOR DERIVING OR CULTURING PLURIPOTENT CELLS” (priority 2009, published 2011).

Assays:
mEpiSCs = assay: Signaling dependence of pluripotent cell lines, mEpiSCs; type: cell-based, mouse; conditions: normal growth medium, inhibitor or factor added
Procedure: (§1) Pluripotent cells were equally divided and plated on feeders in the indicated growth medium in which these cell lines are normally maintained, and 36 hours later the wells were supplemented with the indicated inhibitors or growth factors. After seven days, wells were fixed and stained to determine the relative percentage of colonies positive for pluripotency markers. SSEA1 staining was used for mouse stem cells. Colony formation was normalized to an internal control “Growth medium” without inhibitors (first left column). Normalized percentages lower than 5% are defined as “sensitivity” to the presence of the supplemented inhibitor. (B-C) Western blot analysis of total ERK1/2, phosphorylated ERK1/2 (pERK1/2) and phosphorylated Stat3 (pStat3). WIBR3 hESC and C1 hiPSC were grown in traditional bFGF/Activin containing media while naive-hESC/hiPSCs were grown in N2B27 PD/CH/FOR/LIF. ‘2×LIF’ indicates two fold increase in LIF concentration. (D) LIF/Stat3 is required for stabilization of naive-hESC/hiPSCs. Naïve NOD mESCs, WIBR3.5 and WIBR3.1 naive-hESC, and C1 naïve-hiPSCs were electroporated with a pBRY-CAGGS-flox-DsRedT4-IP control plasmid, a plasmid encoding a dominant negative Stat3 Y705F mutant (Stat3-DN), or a plasmid Stat3-C constitutively active mutant (pBRY-Stat3-CA). Cells were passaged three times in the presence of puromycin. After 20 days, colonies positive for pluripotency markers were counted and normalized to colonies from cells electroporated with empty vector (n=3 replicates for each condition). (E) RT-PCR expression of early germ cell markers in the presence or absence of BMP4/7/8 cytokines for 7 days. (F) Representative FISH analysis for XIST RNA (red) and Cot1 nuclear RNA (green). Pri-WIBR3.2 cell line was analyzed after passaging in conventional bFGF/serum-containing human ESC growth conditions. Numbers indicate average percentage of XIST positive nuclei counted.
(§2) Small molecules and cytokines were purchased from Tocris, Calbiochem or Sigma, and were supplemented as indicated at the following final concentration: JAK inhibitor (JAKi, 6 μM), Kenpaullone (KP, 5 μM), PD0325901 (PD, 1 μM); CHIR99021 (CH, […]), Forskolin (FK, 10 μM), FGF4-Receptor inhibitors PD173074 (0.1 μM) and SU5401 (2 μM); TGFβ/ALK inhibitors A83-01 (1 μM), RepSox (1 μM), ALK inhibitor (ALKi—SB431542, 2 μM); AICAR (0.5 mM); BixO1294 (1 μM); BayK8644 (1 μM); recombinant human BMP4 (10 ng/ml), recombinant human IL-6 (10 ng/ml), recombinant human TGFβ (500 ng/ml), Media with inhibitors was routinely replaced every 48 hours to sustain activity of compounds.

naive-hESCs/hiPSCs = assay: Signaling dependence of pluripotent cell lines, naive-hESC/hiPSC; type: cell-based, human; conditions: grown in PD/CH/FK/LIF, inhibitor or factor added
Procedure: as §1, §2

mESCs = assay: Signaling dependence of pluripotent cell lines, mESCs; type: cell-based, mouse; conditions: normal growth medium, inhibitor or factor added
Procedure: Pluripotent cells were equally divided and plated on feeders in the indicated growth medium in which these cell lines are normally maintained, and 36 hours later the wells were supplemented with the indicated inhibitors or growth factors. After seven days, wells were fixed and stained to determine the relative percentage of colonies positive for pluripotency markers. SSEA1 staining was used for mouse stem cells. Colony formation was normalized to an internal control “Growth medium” without inhibitors (first left column). Normalized percentages lower than 5% are defined as “sensitivity” to the presence of the supplemented inhibitor. (B-C) Western blot analysis of total ERK1/2, phosphorylated ERK1/2 (pERK1/2) and phosphorylated Stat3 (pStat3). WIBR3 hESC and C1 hiPSC were grown in traditional bFGF/Activin containing media while naive-hESC/hiPSCs were grown in N2B27 PD/CH/FOR/LIF. ‘2×LIF’ indicates two fold increase in LIF concentration. (D) LIF/Stat3 is required for stabilization of naive-hESC/hiPSCs. Naïve NOD mESCs, WIBR3.5 and WIBR3.1 naive-hESC, and C1 naïve-hiPSCs were electroporated with a pBRY-CAGGS-flox-DsRedT4-IP control plasmid, a plasmid encoding a dominant negative Stat3 Y705F mutant (Stat3-DN), or a plasmid Stat3-C constitutively active mutant (pBRY-Stat3-CA). Cells were passaged three times in the presence of puromycin. After 20 days, colonies positive for pluripotency markers were counted and normalized to colonies from cells electroporated with empty vector (n=3 replicates for each condition). (E) RT-PCR expression of early germ cell markers in the presence or absence of BMP4/7/8 cytokines for 7 days. (F) Representative FISH analysis for XIST RNA (red) and Cot1 nuclear RNA (green). Pri-WIBR3.2 cell line was analyzed after passaging in conventional bFGF/serum-containing human ESC growth conditions. Numbers indicate average percentage of XIST positive nuclei counted. […]

hESCs = assay: Signaling dependence of pluripotent cell lines, conventional hESCs; type: cell-based, human; conditions: normal growth medium, inhibitor or factor added
Procedure: Pluripotent cells were equally divided and plated on feeders in the indicated growth medium in which these cell lines are normally maintained, and 36 hours later the wells were supplemented with the indicated inhibitors or growth factors. After seven days, wells were fixed and stained to determine the relative percentage of colonies positive for pluripotency markers. SSEA1 staining was used for mouse stem cells. Colony formation was normalized to an internal control “Growth medium” without inhibitors (first left column). […] (B-C) Western blot analysis of total ERK1/2, phosphorylated ERK1/2 (pERK1/2) and phosphorylated Stat3 (pStat3). WIBR3 hESC and C1 hiPSC were grown in traditional bFGF/Activin containing media while naive-hESC/hiPSCs were grown in N2B27 PD/CH/FOR/LIF. ‘2×LIF’ indicates two fold increase in LIF concentration. […] Cells were passaged three times in the presence of puromycin. […] (E) RT-PCR expression of early germ cell markers in the presence or absence of BMP4/7/8 cytokines for 7 days. (F) Representative FISH analysis for XIST RNA (red) and Cot1 nuclear RNA (green). Pri-WIBR3.2 cell line was analyzed after passaging in conventional bFGF/serum-containing human ESC growth conditions.

NOD-iPS cells = assay: Dox-independent propagation of Dox-dependent NOD-iPS cells in supplemented mESM; type: cell-based, mouse (NOD); conditions: mESM lacking Dox
Description: FIGS. 4(A)-4(H) illustrate generation of genetically unmodified germline competent NOD ES cells. (A) Experimental outline for derivation of iPS lines that grow in the presence of small molecules and in the absence of Dox. Representative images of NOD iPS lines growing in mESM supplemented with the indicated small molecules or growth factors. (B) Single-cell cloning efficiency of NOD iPS cells in different growth conditions. WT or NOD-iPS cells grown in mESM and KP were sorted in 96 well plates and cultured in mESM supplemented with small molecules. The number of wells containing Nanog+ colonies was counted after 6 days. Efficiencies were normalized to that of C57B6/129F1-iPS cells (“permissive” controls) plated in mESM and defined as 100%. SD for average efficiencies from 2 experiments are shown. Student test P value compares KP/CH to PD/CH mESM conditions for NOD iPS cells. (C) Expansion of day E3.5 ICM derived NOD ES cells in the presence of KP, KP/CH or PD/CH and derivation of stable ES lines. Images of initial colonies observed at passage 2 after embryo dissociation are shown together with representative images at later passages. (D) Karyotype of NOD ES lines. (E) Immunostaining of NOD ES lines for pluripotency markers. Inhibitors used during cell line derivation and propagation are indicated. (F) Chimerism in adult mice generated from the indicated cell lines is evident by the presence of agouti (brown) and albino coat color originating from the NOD background. […] (G) Real-Time PCR analysis for endogenous expressed Oct4, c-Myc and Klf4 genes in NOD iPS and ES cells grown in the indicated conditions. Relative expression levels are normalized to levels detected in control 129 ES cells. (H) Southern analysis indicating correct targeting of the endogenous Nanog locus in NOD ES cells with Nanog-GFP knock-in targeting construct.
Small molecules have been identified to replace some of the reprogramming factors in iPS derivation (Huangfu et al., 2008; Shi et al., 2008). […]

C1.2 hiPSCs = assay: Screen for factors stabilizing C1 hiPSCs upon DOX withdrawal; type: cell-based, human; conditions: C1.2 hiPSCs without DOX
Procedure: FIGS. 9(A)-9(D) show the in vitro stabilization of naïve human pluripotent stem cells. […] C1 cells were plated on feeders in N2B27 media with the indicated factors. p-values using student's t-test indicates significant change in comparison to cells grown in DOX/PD/CH/LIF conditions, which were defined as a control (100% survival). (B) Scheme for reverting hESCs to generate “naive-hESCs”. (C) Representative images of WIBR3 hESCs at different stages of the reversion process in PD/CH/LIF/FK (P indicates passage number). (D) Representative images of naive-WIBR3.5 hESC line, derived by plating WIBR3 hESCs in PD/CH/FK/LIF medium without transfection of exogenous factors. Magnifications of captured images are indicated. Naïve human pluripotent cells were grown in serum-free N2B27 based media. […] Throughout the manuscript, indicated passage numbers of naïve-hiPSC/hESCs indicates number of passages counted after induction of the naïve state. […]

| Molecule | effect on pluripotency of mEpiSCs (mEpiSCs) | effect on pluripotency of naive-hESCs/hiPSCs (naive-hESCs/hiPSCs) | effect on pluripotency of mESCs (mESCs) | effect on pluripotency of conventional hESCs (hESCs) | Dox-independent growth of pluripotent NOD-iPS cells (NOD-iPS cells) | role in the 13i+LIF cocktail on removing one inhibitor at a time (C1.2 hiPSCs) |
| --- | --- | --- | --- | --- | --- | --- |
| Cc1cccc(-c2nn(C(=S)Nc3ccccc3)cc2-c2ccnc3ccccc23)n1 [A83-01] | rapidly differentiated | maintained their pluripotent state | maintained their pluripotent state | rapidly differentiated | – | – |
| CCN(CC)CCCCNc1ncc2cc(-c3cc(OC)cc(OC)c3)c(NC(=O)NC(C)(C)C)nc2n1 [PD173074] | resulted in the differentiation | but not of naive-hESCs/hiPSCs or mESCs | – | resulted in the differentiation | – | – |
| Cc1c[nH]c(-c2cnc(NCCNc3ccc(C#N)cn3)nc2-c2ccc(Cl)cc2Cl)n1 [CHIR99021] | – | – | – | – | supported Dox-independent growth | crucial components |
| TGFβ | – | differentiated | differentiated | – | – | – |
| O=C(NOC[C@H](O)CO)c1ccc(F)c(F)c1Nc1ccc(I)cc1F [PD] | – | – | – | could not be propagated | – | crucial components |
| Wnt3a | – | – | – | – | supported Dox-independent growth | – |
